For one series, the system named is db/db mice. The series can be described thus: Obese diabetic db/db mice (Type 2 diabetes model). The format is in vivo. Particulars: oral, 4 weeks. Here is the method: Obese, insulin-resistant and diabetic, leptin receptor-deficient db/db mice were administered compound #11a as described above for 4 weeks. […] In addition, they can lower liver and serum lipid levels

For another series, the system named is TXNIP. The series can be described thus: Inhibition of glucose-induced endogenous TXNIP expression in INS-1 cells (qRT-PCR). Particulars: 25 mM glucose, 24 hrs. In kind it is cell-based, Rat. A digest of the protocol: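 Rat INS-1 cells were pre-cultured 24 h at 5 mM glucose, then exposed 24 h to 25 mM glucose ± compound. TXNIP mRNA was measured by one-step SYBR Green qRT-PCR and normalized to 18S rRNA (2^−ΔΔCT). % inhibition was fitted to a 4-parameter logistic for IC50.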

For the next series, the system named is STZ-diabetic mice. The series can be described thus: Multiple low-dose STZ-induced diabetes in mice. In kind it is in vivo. Here is the method:
After having been rendered overtly diabetic by multiple low-dose STZ injections, mice received compound #11a by gavage at a dose of 100 mg/kg b.i.d or 30 mg/kg b.i.d. or received a vehicle control.

The next series deals with wild-type mice. Description: Oral administration to wild-type mice (glucose, glucagon, hepatic glucose production, lipids). In kind it is in vivo. Here is the method:
Compound #11a was administered for three weeks in the drinking water of wild-type mice at about 100 mg/kg/d.
Further studies of hepatic glucose production and whole body glucose turnover, i.e., peripheral glucose uptake into muscle and adipose tissue, were performed using hyperinsulinemic-euglycemic clamp studies.

The test system of another series is alpha TC1-6 cells. Description: Glucagon secretion of alpha TC1-6 cells. In kind it is cell-based. Particulars: incubation of alpha TC1-6 cells with compound.
The next series has as its system INS-1 cells. The series can be described thus: INS-1 cell viability (Cell Titer-Glo, ATP). Particulars: 72 hrs treatment, hydrochloride. The format is cell-based, Rat. In a few lines:
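Cells seeded at 4.5×10^4 or 3.5×10^4 per well, incubated overnight at 37° C, 5% CO2, then treated with compounds for 24 hrs or 72 hrs respectively. Viability taken as ATP content by Cell Titer-Glo luminescence.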
In general terms: In ATP-based viability assays light output follows the ATP content of the culture.

Where [1] appears, read: vs untreated db/db, hydrochloride.
Where [2] appears, read: about 100 mg/kg/d in drinking water, three weeks.

For orientation: CC50 means the concentration at which the toxic effect on the cells reaches its halfway point.

“Also recorded” adds a separate entry of the source.

On to `CS(=O)(=O)NCC1CCCN(c2ncnc3ccc(C(F)(F)F)cc23)C1.Cl` (centres unmarked) [Compound 11a, N-((1-(6-(trifluoromethyl)quinazolin-4-yl)piperidin-3-yl)methyl)methanesulfonamide hydrochloride], for which the “fasting serum glucagon levels” value in the series on db/db mice is on record as “significant decrease”; with wild-type mice (about 100 mg/kg/d in drinking water, vs control), “decreased”. Also, the blood glucose levels result is given as “significantly lower; also recorded: decreased significantly” in the series with db/db mice (setting [1]); “significantly lower” in the series on STZ-diabetic mice (STZ (day 1-5) wild-type mice, oral compound day 5-15, vs untreated STZ mice); “significantly decreased in a dose-dependent manner” in the series on STZ-diabetic mice (overtly diabetic STZ mice, gavage 100 mg/kg b.i.d or 30 mg/kg b.i.d., vs vehicle); “small but significant decrease” in the series on wild-type mice (setting [2]). Besides, the body weight entry is on record as “no significant effect; also recorded: no difference” with db/db mice (setting [1]); “no detrimental effect; also recorded: maintained a normal body weight” in the series on STZ-diabetic mice (STZ-treated mice, oral 100 mg/kg/d, hydrochloride, 100 mg/kg/day); “no change” in the series with wild-type mice (setting [2]). In the series with TXNIP (1.5 μM compound), the “TXNIP % Inhibition at 1.5 μM” value worked out at 35%. Also, in the series with TXNIP (12.5 μM compound), the “TXNIP % Inhibition at 12.5 μM” value was 57%. In addition, in the series on STZ-diabetic mice (STZ-treated mice, oral 100 mg/kg/d, throughout experiment, sacrifice and dissection), the “detrimental effects or abnormalities” value was “no detrimental effects or abnormalities”. The protection against diabetes result with STZ-diabetic mice (oral 100 mg/kg/d starting after multiple low-dose STZ regimen) is “effectively protected”. The “gross abnormalities in organs upon sacrifice” value in the series on wild-type mice (setting [2]) is “no gross abnormalities”. In addition, in the series with wild-type mice (hyperinsulinemic-euglycemic clamp, vs control), the “basal hepatic glucose production” value is given as “significant decrease”. The liver triglyceride levels result with wild-type mice (oral, vs control) is recorded as “two-fold lower”. The “serum non-esterified fatty acids” value in the series with wild-type mice (oral, vs control) is listed as “significantly lower”. Moreover, in the series on wild-type mice (oral, vs control), the serum triglycerides result is given as “significantly lower”. Besides, the glucagon secretion result in the series on alpha TC1-6 cells is “decreased”. For the same compound, in the series with INS-1 cells, the CC50 is above 100 µM.

(Values after US11524010B2, “Substituted quinazoline sulfonamides as thioredoxin interacting protein (TXNIP) inhibitors” (SOUTHERN RESEARCH INSTITUTE, priority 2017, dated 2022).)
